{
  "source": "the supplement of paper PMC10307832",
  "experiment_in_all_cases": "relative viability (nuclei count vs DMSO), 5 days (fraction); higher = more cells survive",
  "key": {"BEN": {"system": "BEN", "procedure,_shortened": "(§1)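 Relative viability divides the nuclei count in treated wells by that in vehicle wells. Lung cancer cell lines were seeded in 1536-well plates, dosed by pin tool the next day, and fixed and stained after 5 days in one step with final 0.05% Triton X-100, 1% formaldehyde and 1 ug/ml Hoechst. Dosing was a single drug or a fixed anchor-drug dose plus five library-drug doses (not always all listed) in √10 steps, and values are medians of duplicate plates imaged at 4×.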"}, "ChaGo-K-1": {"system": "ChaGo-K-1", "procedure,_shortened": "as §1"}, "HCC-78": {"system": "HCC-78", "procedure,_shortened": "as §1"}, "LC-2-ad": {"system": "LC-2-ad", "procedure,_shortened": "as §1"}, "LCLC-97TM1": {"system": "LCLC-97TM1", "procedure,_shortened": "as §1"}, "LK-2": {"system": "LK-2", "procedure,_shortened": "as §1"}, "LU99A": {"system": "LU99A", "procedure,_shortened": "as §1"}, "LXF-289": {"system": "LXF-289", "procedure,_shortened": "as §1"}, "NCI-H1355": {"system": "NCI-H1355", "procedure,_shortened": "as §1"}, "NCI-H1651": {"system": "NCI-H1651", "procedure,_shortened": "as §1"}, "NCI-H1666": {"system": "NCI-H1666", "procedure,_shortened": "as §1"}, "NCI-H1944": {"system": "NCI-H1944", "procedure,_shortened": "as §1"}, "NCI-H1975": {"system": "NCI-H1975", "procedure,_shortened": "as §1"}, "NCI-H2087": {"system": "NCI-H2087", "procedure,_shortened": "as §1"}, "NCI-H358": {"system": "NCI-H358", "procedure,_shortened": "as §1"}, "NCI-H596": {"system": "NCI-H596", "procedure,_shortened": "as §1"}, "NCI-H650": {"system": "NCI-H650", "procedure,_shortened": "as §1"}, "NCI-H661": {"system": "NCI-H661", "procedure,_shortened": "as §1"}, "NCI-H838": {"system": "NCI-H838", "procedure,_shortened": "as §1"}, "PC-3 [JPC-3]": {"system": "PC-3 [JPC-3]", "procedure,_shortened": "as §1"}, "SK-MES-1": {"system": "SK-MES-1", "procedure,_shortened": "as §1"}},
  "data": [
    {"compound": "COc1nc(C)cnc1NS(=O)(=O)c1cccnc1-c1ccc(-c2nnco2)cc1", "note": "[Zibotentan] + CS(=O)(=O)N1CCN(Cc2cc3nc(-c4cccc5[nH]ncc45)nc(N4CCOCC4)c3s2)CC1 [Pictilisib] (partner 1 µM)", "values": [
      {"measurement": "relative viability", "setting": "BEN; first compound 0.08 µM", "result": 0.652},
      {"measurement": "relative viability", "setting": "BEN; first compound 0.253 µM", "result": 0.448},
      {"measurement": "relative viability", "setting": "BEN; first compound 0.8 µM", "result": 0.55},
      {"measurement": "relative viability", "setting": "BEN; first compound 2.53 µM", "result": 0.552},
      {"measurement": "relative viability", "setting": "ChaGo-K-1; first compound 0.08 µM", "result": 0.653},
      {"measurement": "relative viability", "setting": "ChaGo-K-1; first compound 0.8 µM", "result": 0.426},
      {"measurement": "relative viability", "setting": "ChaGo-K-1; first compound 2.53 µM", "result": 0.691},
      {"measurement": "relative viability", "setting": "HCC-78; first compound 0.08 µM", "result": 0.0937},
      {"measurement": "relative viability", "setting": "HCC-78; first compound 0.253 µM", "result": 0.23},
      {"measurement": "relative viability", "setting": "HCC-78; first compound 0.8 µM", "result": 0.198},
      {"measurement": "relative viability", "setting": "HCC-78; first compound 2.53 µM", "result": 0.195},
      {"measurement": "relative viability", "setting": "LC-2-ad; first compound 0.08 µM", "result": 0.48},
      {"measurement": "relative viability", "setting": "LC-2-ad; first compound 0.253 µM", "result": 0.406},
      {"measurement": "relative viability", "setting": "LC-2-ad; first compound 0.8 µM", "result": 0.527},
      {"measurement": "relative viability", "setting": "LC-2-ad; first compound 2.53 µM", "result": 0.435},
      {"measurement": "relative viability", "setting": "LCLC-97TM1; first compound 0.08 µM", "result": 0.214},
      {"measurement": "relative viability", "setting": "LCLC-97TM1; first compound 0.253 µM", "result": 0.167},
      {"measurement": "relative viability", "setting": "LCLC-97TM1; first compound 0.8 µM", "result": 0.176},
      {"measurement": "relative viability", "setting": "LCLC-97TM1; first compound 2.53 µM", "result": 0.176},
      {"measurement": "relative viability", "setting": "LK-2; first compound 0.08 µM", "result": 0.542},
      {"measurement": "relative viability", "setting": "LK-2; first compound 0.253 µM", "result": 0.471},
      {"measurement": "relative viability", "setting": "LK-2; first compound 0.8 µM", "result": 0.55},
      {"measurement": "relative viability", "setting": "LK-2; first compound 2.53 µM", "result": 0.603},
      {"measurement": "relative viability", "setting": "LU99A; first compound 0.08 µM", "result": 0.362},
      {"measurement": "relative viability", "setting": "LU99A; first compound 0.253 µM", "result": 0.314},
      {"measurement": "relative viability", "setting": "LU99A; first compound 0.8 µM", "result": 0.343},
      {"measurement": "relative viability", "setting": "LU99A; first compound 2.53 µM", "result": 0.371},
      {"measurement": "relative viability", "setting": "LXF-289; first compound 0.08 µM", "result": 0.774},
      {"measurement": "relative viability", "setting": "LXF-289; first compound 0.253 µM", "result": 0.739},
      {"measurement": "relative viability", "setting": "LXF-289; first compound 0.8 µM", "result": 0.814},
      {"measurement": "relative viability", "setting": "LXF-289; first compound 2.53 µM", "result": 0.783},
      {"measurement": "relative viability", "setting": "NCI-H1355; first compound 0.08 µM", "result": 0.403},
      {"measurement": "relative viability", "setting": "NCI-H1355; first compound 0.253 µM", "result": 0.424},
      {"measurement": "relative viability", "setting": "NCI-H1355; first compound 0.8 µM", "result": 0.431},
      {"measurement": "relative viability", "setting": "NCI-H1355; first compound 2.53 µM", "result": 0.436},
      {"measurement": "relative viability", "setting": "NCI-H1651; first compound 0.08 µM", "result": 0.742},
      {"measurement": "relative viability", "setting": "NCI-H1651; first compound 0.253 µM", "result": 0.427},
      {"measurement": "relative viability", "setting": "NCI-H1651; first compound 0.8 µM", "result": 0.705},
      {"measurement": "relative viability", "setting": "NCI-H1651; first compound 2.53 µM", "result": 0.602},
      {"measurement": "relative viability", "setting": "NCI-H1666; first compound 0.08 µM", "result": 0.553},
      {"measurement": "relative viability", "setting": "NCI-H1666; first compound 0.253 µM", "result": 0.361},
      {"measurement": "relative viability", "setting": "NCI-H1666; first compound 0.8 µM", "result": 0.467},
      {"measurement": "relative viability", "setting": "NCI-H1666; first compound 2.53 µM", "result": 0.429},
      {"measurement": "relative viability", "setting": "NCI-H1944; first compound 0.08 µM", "result": 0.368},
      {"measurement": "relative viability", "setting": "NCI-H1944; first compound 0.253 µM", "result": 0.323},
      {"measurement": "relative viability", "setting": "NCI-H1944; first compound 0.8 µM", "result": 0.338},
      {"measurement": "relative viability", "setting": "NCI-H1944; first compound 2.53 µM", "result": 0.393},
      {"measurement": "relative viability", "setting": "NCI-H1975; first compound 0.08 µM", "result": 0.311},
      {"measurement": "relative viability", "setting": "NCI-H1975; first compound 0.253 µM", "result": 0.262},
      {"measurement": "relative viability", "setting": "NCI-H1975; first compound 0.8 µM", "result": 0.293},
      {"measurement": "relative viability", "setting": "NCI-H1975; first compound 2.53 µM", "result": 0.299},
      {"measurement": "relative viability", "setting": "NCI-H2087; first compound 0.08 µM", "result": 0.881},
      {"measurement": "relative viability", "setting": "NCI-H2087; first compound 0.253 µM", "result": 0.834},
      {"measurement": "relative viability", "setting": "NCI-H2087; first compound 0.8 µM", "result": 1.01},
      {"measurement": "relative viability", "setting": "NCI-H2087; first compound 2.53 µM", "result": 0.954},
      {"measurement": "relative viability", "setting": "NCI-H358; first compound 0.08 µM", "result": 0.318},
      {"measurement": "relative viability", "setting": "NCI-H358; first compound 0.8 µM", "result": 0.395},
      {"measurement": "relative viability", "setting": "NCI-H358; first compound 2.53 µM", "result": 0.378},
      {"measurement": "relative viability", "setting": "NCI-H596; first compound 0.08 µM", "result": 0.446},
      {"measurement": "relative viability", "setting": "NCI-H596; first compound 0.253 µM", "result": 0.417},
      {"measurement": "relative viability", "setting": "NCI-H596; first compound 0.8 µM", "result": 0.385},
      {"measurement": "relative viability", "setting": "NCI-H596; first compound 2.53 µM", "result": 0.428},
      {"measurement": "relative viability", "setting": "NCI-H650; first compound 0.08 µM", "result": 0.921},
      {"measurement": "relative viability", "setting": "NCI-H650; first compound 0.253 µM", "result": 0.773},
      {"measurement": "relative viability", "setting": "NCI-H650; first compound 0.8 µM", "result": 0.743},
      {"measurement": "relative viability", "setting": "NCI-H650; first compound 2.53 µM", "result": 0.821},
      {"measurement": "relative viability", "setting": "NCI-H661; first compound 0.08 µM", "result": 0.43},
      {"measurement": "relative viability", "setting": "NCI-H661; first compound 0.253 µM", "result": 0.302},
      {"measurement": "relative viability", "setting": "NCI-H661; first compound 0.8 µM", "result": 0.391},
      {"measurement": "relative viability", "setting": "NCI-H661; first compound 2.53 µM", "result": 0.314},
      {"measurement": "relative viability", "setting": "NCI-H838; first compound 0.08 µM", "result": 0.451},
      {"measurement": "relative viability", "setting": "NCI-H838; first compound 0.253 µM", "result": 0.406},
      {"measurement": "relative viability", "setting": "NCI-H838; first compound 0.8 µM", "result": 0.582},
      {"measurement": "relative viability", "setting": "NCI-H838; first compound 2.53 µM", "result": 0.518},
      {"measurement": "relative viability", "setting": "PC-3 [JPC-3]; first compound 0.08 µM", "result": 0.756},
      {"measurement": "relative viability", "setting": "PC-3 [JPC-3]; first compound 0.253 µM", "result": 0.717},
      {"measurement": "relative viability", "setting": "PC-3 [JPC-3]; first compound 0.8 µM", "result": 0.647},
      {"measurement": "relative viability", "setting": "PC-3 [JPC-3]; first compound 2.53 µM", "result": 0.781},
      {"measurement": "relative viability", "setting": "SK-MES-1; first compound 0.08 µM", "result": 0.344},
      {"measurement": "relative viability", "setting": "SK-MES-1; first compound 0.253 µM", "result": 0.356},
      {"measurement": "relative viability", "setting": "SK-MES-1; first compound 0.8 µM", "result": 0.388},
      {"measurement": "relative viability", "setting": "SK-MES-1; first compound 2.53 µM", "result": 0.428}
    ]}
  ]
}
